The term EC50 denotes the concentration at which the effect is half-maximal. As usually defined, the Ki is a measure of affinity in units of concentration, obtained from inhibition or displacement. As a reminder, the efflux ratio is the permeability from basolateral to apical divided by that in the opposite direction, in the common usage.

For series [1], the system named is brain proteins. Kind of series: in vitro. Here is the method:
The initial preparation of the dialysis membrane involved thawing brain homogenate in a water bath at room temperature and subsequently heating it at 37° C. for 10 minutes. The dialysis setup utilized was from HT Dialysis LLC, featuring a HT-Dialysis plate (Model HTD 96 b) and a dialysis membrane with a molecular weight cutoff of 12-14 kDa.
The membrane underwent a comprehensive pretreatment which included hydration in ultra-pure water at room temperature for approximately one hour. This was followed by separation and immersion in a 20:80 ethanol:water solution for about 20 minutes. After this treatment, the membranes were either used immediately or stored at 2-8° C. for up to one month, with a final rinse in ultra-pure water prior to experimental use.
For compound preparation, test and control substances were first dissolved to create 400 μM working solutions by mixing 4 μL of stock solution with 96 μL of DMSO. These working solutions were then further diluted to 2 μM in a blank matrix by combining 3 μL of the prepared solution with 597 μL of matrix, ensuring thorough mixing.
During the assay, 50 μL aliquots of the 2 μM compound-matrix mixture were dispensed in triplicate into a Sample Collection Plate. Each aliquot was paired with an equal volume of blank PBS to standardize the total volume to 100 μL per well at a 1:1 matrix to PBS ratio. A stop solution comprising 500 μL of acetonitrile with tolbutamide and labetalol at 250 nM each was added to stabilize the samples at TO. The samples were then shaken at 800 rpm for 10 minutes and stored at 2-8° C.
The dialysis procedure included assembling the dialysis device according to the manufacturer's specifications, loading the matrix aliquots into the donor side of the dialysis wells, and conducting the dialysis under a humidified atmosphere with 5% CO2 at 37° C. for 4 hours.
Post-dialysis, 50 μL samples were collected from both the receiver and donor sides into new 96-well plates. Volumes were adjusted to 100 μL by adding an equivalent amount of the opposite blank matrix or PBS. The samples were prepared for LC-MS/MS analysis after thorough vertexing and centrifugation. Blank control samples were prepared and processed similarly to mirror the test conditions.
Data analysis involved calculating the percentages of undiluted unbound and bound fractions, and recovery of the compounds.

Series [2] deals with T1, α2AAR (α2A-adrenergic receptor) (Homo sapiens, UniProt P08913).
T1 construct: expressed in transfected cells; host or cells: HEK293
T1 sequence (P08913 1-465): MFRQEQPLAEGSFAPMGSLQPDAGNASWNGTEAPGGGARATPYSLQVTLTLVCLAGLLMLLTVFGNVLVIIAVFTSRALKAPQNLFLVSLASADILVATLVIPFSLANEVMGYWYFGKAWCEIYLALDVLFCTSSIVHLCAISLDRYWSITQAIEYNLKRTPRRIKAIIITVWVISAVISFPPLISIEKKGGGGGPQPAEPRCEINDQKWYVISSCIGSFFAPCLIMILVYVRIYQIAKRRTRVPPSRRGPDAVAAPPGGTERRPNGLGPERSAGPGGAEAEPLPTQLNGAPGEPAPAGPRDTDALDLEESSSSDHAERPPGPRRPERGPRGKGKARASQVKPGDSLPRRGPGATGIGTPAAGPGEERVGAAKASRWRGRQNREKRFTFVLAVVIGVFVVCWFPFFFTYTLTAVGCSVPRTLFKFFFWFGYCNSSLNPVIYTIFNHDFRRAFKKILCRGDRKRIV
Kind of series: α2AAR FLIPR assay (agonist activity). It is filed as cell-based. The conditions noted are these: FLIPR, α2AAR cell line hosted in HEK293 cells; read-out: α2A agonist activity (EC50). The gist of the method: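 HEK293 cells expressing α2AAR loaded with Fluo-4 Direct plus probenecid for 50 min at 37° C and 10 min at room temperature, then treated with serially diluted compounds.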

In series [3] the target is T2, α2AAR (Homo sapiens, UniProt P08913).
T2 construct: host or cells: HEK293 (membranes)
T2 sequence (P08913 1-465): T1 sequence (P08913 1-465)
As to the kind of experiment: α2AAR binding assay ([3H]-RX 821002 radioligand). The conditions noted are these: [3H]-RX 821002 0.5 nM, HEK293 membranes; read-out: α2A affinity (Ki).

The target in series [4] is P-glycoprotein (P-gp, MDR1) (Homo sapiens, UniProt P08183). As to the kind of experiment: in vitro. The conditions noted are these: dog, MDCK-MDR1, pH 7.4. As for the experimental part:
MDR1-MDCK II cells (obtained from Piet Borst at the Netherlands Cancer Institute) were seeded onto Polycarbonate membranes (PC) in 96-well insert systems at 3.33×10^5 cells/mL until to 4-7 days for confluent cell monolayer formation.
Selected α2AR agonist from table 3s were diluted with the transport buffer (HBSS with 10.0 mM Hepes, pH7.4) from DMSO stock solution to a concentration of 2 μM (DMSO<1%) and applied to the apical or basolateral side of the cell monolayer. […] Permeation of the test compounds from A to B direction and/or B to A direction was determined in duplicate. Digoxin was tested at 10.0 μM from A to B direction and B to A direction in duplicate. The plate was incubated for 2.5 hours in CO2 incubator at 37.0±1.0° C., with 5.0% CO2 at saturated humidity without shaking. In addition, the efflux ratio of each compound was also determined. Test and reference compounds were quantified by LC/MS/MS analysis based on the peak area ratio of analyte/IS.
After transport assay, lucifer yellow rejection assay was applied to determine the cell monolayer integrity. Buffers were removed from both apical and basolateral chambers, followed by the addition of 75 μL of 100 μM lucifer yellow in transport buffer and 250 μL transport buffer in apical and basolateral chambers, respectively. The plate was incubated for 30 minutes at 37.0° C. with 5.0% CO2 and 95.0% relative humidity without shaking. After 30 minutes incubation, 20 μL of lucifer yellow samples were taken from the apical sides, followed by the addition of 60 μL of transport Buffer. And then 80 μL of lucifer yellow samples were taken from the basolateral sides. The relative fluorescence unit (RFU) of lucifer yellow was measured at 425/528 nm (excitation/emission) with an Envision plate reader.
The apparent permeability coefficient Papp (cm/s) was calculated using the equation: […]
wherein dCr/dt is the cumulative concentration of compound in the receiver chamber as a function of time (μM/s); Vr is the solution volume in the receiver chamber (0.075 mL on the apical side, 0.25 mL on the basolateral side); A is the surface area for the transport, i.e. 0.143 cm2 for the area of the monolayer; and C0 is the initial concentration in the donor chamber (μM).
The efflux ratio was calculated using the equation: […]

Sequence of P-glycoprotein (P-gp, MDR1) (P08183 whole entry): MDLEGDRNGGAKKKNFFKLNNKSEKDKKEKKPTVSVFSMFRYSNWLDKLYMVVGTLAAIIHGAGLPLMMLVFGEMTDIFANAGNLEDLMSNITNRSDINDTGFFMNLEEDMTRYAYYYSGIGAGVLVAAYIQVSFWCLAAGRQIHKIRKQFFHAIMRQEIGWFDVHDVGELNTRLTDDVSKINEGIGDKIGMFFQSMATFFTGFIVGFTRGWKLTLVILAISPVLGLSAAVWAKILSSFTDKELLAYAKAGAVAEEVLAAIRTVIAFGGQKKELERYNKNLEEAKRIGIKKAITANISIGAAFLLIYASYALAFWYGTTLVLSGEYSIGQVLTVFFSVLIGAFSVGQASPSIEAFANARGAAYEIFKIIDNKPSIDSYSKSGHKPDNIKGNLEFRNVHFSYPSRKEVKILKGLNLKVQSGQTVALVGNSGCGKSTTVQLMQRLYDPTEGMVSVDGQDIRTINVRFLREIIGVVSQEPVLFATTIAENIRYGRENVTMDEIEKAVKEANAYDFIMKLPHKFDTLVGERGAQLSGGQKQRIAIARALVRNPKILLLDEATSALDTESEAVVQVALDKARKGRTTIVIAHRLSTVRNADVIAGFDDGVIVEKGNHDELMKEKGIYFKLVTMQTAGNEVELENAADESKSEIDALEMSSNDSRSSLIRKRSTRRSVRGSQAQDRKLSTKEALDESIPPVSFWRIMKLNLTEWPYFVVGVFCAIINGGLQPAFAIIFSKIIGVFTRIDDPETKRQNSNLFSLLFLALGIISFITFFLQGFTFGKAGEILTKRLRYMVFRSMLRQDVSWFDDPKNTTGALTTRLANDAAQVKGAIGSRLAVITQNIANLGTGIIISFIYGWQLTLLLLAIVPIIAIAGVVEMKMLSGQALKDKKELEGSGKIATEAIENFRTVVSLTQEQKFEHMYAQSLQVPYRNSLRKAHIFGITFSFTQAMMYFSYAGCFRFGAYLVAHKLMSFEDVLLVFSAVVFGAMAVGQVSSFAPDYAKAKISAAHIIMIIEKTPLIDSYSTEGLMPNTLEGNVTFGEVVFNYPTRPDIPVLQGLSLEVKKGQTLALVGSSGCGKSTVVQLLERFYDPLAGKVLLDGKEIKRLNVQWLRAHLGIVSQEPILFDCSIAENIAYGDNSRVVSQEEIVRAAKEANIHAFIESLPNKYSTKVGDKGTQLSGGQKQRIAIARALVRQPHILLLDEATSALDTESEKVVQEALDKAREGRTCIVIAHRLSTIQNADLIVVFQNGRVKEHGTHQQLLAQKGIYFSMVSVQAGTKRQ

`CC(C)NCC(O)COc1cccc2ccccc12` (stereo not drawn) [Propranolol, propranolol]: the recovery at 4 h, 2 μM in series [1] turned out to be 109%. Also, the “% Undiluted Bound (n = 3)” value in series [1] (4 h, 2 μM) is given as 97.4%. For the same molecule, the “% Undiluted Unbound (n = 3)” value in series [1] (brain homogenate, 4 h, 2 μM) amounted to 2.6%.

Turning to `Cc1cccc(C(c2cccc(NC(=O)NC3CCOCC3)c2)c2c[nH]cn2)c1C` (stereo not drawn) [compound 111], the EC50 in series [2] fell in the range of 10 to 50 nM. Moreover, the Ki in series [3] was 10 to 50 nM. The efflux ratio at 2.5 h, 2 μM in series [4] was 173.

Regarding `Cc1cccc(C(Cc2cccc(NS(=O)(=O)CC3CCOCC3)c2)c2c[nH]cn2)c1C` (stereo not drawn) [compound 112], the EC50 in series [2] lay within 10 to 50 nM. For the same molecule, the Ki in series [3] was under 10 nM. The efflux ratio at 2.5 h, 2 μM in series [4] is 58.4.

As to `Cc1cccc(C(c2c[nH]cn2)c2cccc(C(=O)NCC3CCOCC3)c2O)c1C` (stereo not drawn) [compound 138], the concentration giving a half-maximal response (EC50) in series [2] was in the range of 10 to 50 nM. Also, the inhibition constant Ki in series [3] is under 10 nM. For the same molecule, in series [4], the efflux ratio at 2.5 h, 2 μM turned out to be 7.85.

With `Cc1cccc(C(c2cccc(NC(=O)CC[N+](C)(C)C)c2)c2c[nH]cn2)c1C` (stereo not drawn) [compound 141], in series [2], the concentration giving a half-maximal response (EC50) fell in the range of 50 to 250 nM. Besides, the Ki in series [3] lay within 10 to 50 nM. For the same molecule, the efflux ratio at 2.5 h, 2 μM in series [4] amounted to 2.61.

Regarding `Cc1cccc(C(Cc2ccc(NS(=O)(=O)C3CCOCC3)cc2)c2c[nH]cn2)c1C` (stereo not drawn) [compound 158], in series [2], the EC50 fell in the range of 10 to 50 nM. The inhibition constant Ki in series [3] is under 10 nM. Further, in series [4], the efflux ratio at 2.5 h, 2 μM was 23.7.

For the molecule `Cc1cccc(C(Cc2ccc(C(N)=O)cc2)c2c[nH]cn2)c1C` (stereo not drawn) [compound 163], in series [2], the EC50 was 10 to 50 nM. Further, the inhibition constant Ki in series [3] is under 10 nM. Also, the efflux ratio at 2.5 h, 2 μM in series [4] was determined as 9.08.

On to `Cc1cccc(C(Cc2ccc(NC(=O)CC3CCOCC3)cc2)c2c[nH]cn2)c1C` (stereo not drawn) [compound 165], for which, in series [2], the 50% effective concentration (EC50) was under 10 nM. Moreover, the inhibitory constant (Ki) in series [3] was under 10 nM. In addition, in series [4], the efflux ratio at 2.5 h, 2 μM came out at 14.8.

Regarding `Cc1cccc(C(Cc2ccc(C(=O)NC3CCOCC3)nc2)c2c[nH]cn2)c1C` (stereo not drawn) [compound 186], in series [2], the EC50 was in the range of 10 to 50 nM. For the same molecule, in series [3], the Ki fell in the range of 10 to 50 nM. The efflux ratio at 2.5 h, 2 μM in series [4] is 3.38.

On to `Cc1cccc(C(Cc2ccc(C(=O)NC3CCOCC3)c(F)c2)c2c[nH]cn2)c1C` (stereo not drawn) [compound 187], for which the EC50 in series [2] lay in the range of 10 to 50 nM. The Ki in series [3] is under 10 nM. Besides, the efflux ratio at 2.5 h, 2 μM in series [4] turned out to be 2.6.

Consider `CC(=O)Nc1ccc(CC(c2c[nH]cn2)c2cccc(C)c2C)cc1` (stereo not drawn) [compound 190], for which the concentration giving a half-maximal response (EC50) in series [2] fell in the range of 10 to 50 nM. In series [3], the inhibitory constant (Ki) is under 10 nM. In addition, in series [4], the efflux ratio at 2.5 h, 2 μM was determined as 4.91.

In the case of `Cc1cccc(C(Cc2ccc(NC(=O)C3COC3)cc2)c2c[nH]cn2)c1C` (stereo not drawn) [compound 200], the EC50 in series [2] lay within 10 to 50 nM. For the same molecule, the inhibitory constant (Ki) in series [3] was under 10 nM. Further, the efflux ratio at 2.5 h, 2 μM in series [4] was found to be 27.7.

Consider `Cc1cccc(C(Cc2ccc(NC(=O)NC3CCOCC3)cc2)c2c[nH]cn2)c1C` (stereo not drawn) [compound 205], for which, in series [2], the EC50 lay within 10 to 50 nM. In addition, the inhibitory constant (Ki) in series [3] was under 10 nM. Besides, in series [4], the efflux ratio at 2.5 h, 2 μM came out at 61.8.

For `Cc1cccc(C(Cc2ccc(S(N)(=O)=O)c(F)c2)c2c[nH]cn2)c1C` (stereo not drawn) [compound 208], the half-maximal effective concentration (EC50) in series [2] is under 10 nM. In addition, the inhibition constant (Ki) in series [3] is under 10 nM. For the same molecule, the efflux ratio at 2.5 h, 2 μM in series [4] amounted to 8.88.

As to `COc1cc(CC(c2c[nH]cn2)c2cccc(C)c2C)ccc1C(=O)NC1CCOCC1` (stereo not drawn) [compound 213], the EC50 in series [2] is under 10 nM. Moreover, in series [3], the Ki is under 10 nM. For the same molecule, in series [4], the efflux ratio at 2.5 h, 2 μM is 4.92.

Turning to `Cc1cccc(C(Cc2ccc(NC(=O)NC3COC3)cc2)c2c[nH]cn2)c1C` (stereo not drawn) [compound 214], the half-maximal effective concentration (EC50) in series [2] lay within 10 to 50 nM. Also, the inhibition constant (Ki) in series [3] is under 10 nM. Moreover, the efflux ratio at 2.5 h, 2 μM in series [4] is 56.1.

As to `CNC(=O)c1ccc(CC(c2c[nH]cn2)c2cccc(C)c2C)cc1` (stereo not drawn) [compound 215], the 50% effective concentration (EC50) in series [2] is under 10 nM. For the same molecule, the inhibitory constant (Ki) in series [3] is under 10 nM. Further, in series [4], the efflux ratio at 2.5 h, 2 μM was determined as 4.77.

As for `Cc1cccc(C(Cc2ccc(C(=O)N(C)C)cc2)c2c[nH]cn2)c1C` (stereo not drawn) [compound 216], the 50% effective concentration (EC50) in series [2] is under 10 nM. Also, the inhibitory constant (Ki) in series [3] was under 10 nM. Moreover, the efflux ratio at 2.5 h, 2 μM in series [4] was 3.21.

With `Cc1cccc(C(Cc2ccc(S(N)(=O)=O)cc2)c2c[nH]cn2)c1C` (stereo not drawn) [compound 217], the EC50 in series [2] was under 10 nM. Also, the Ki in series [3] was under 10 nM. The efflux ratio at 2.5 h, 2 μM in series [4] is 17.5.

Take `Cc1cccc(C(Cc2ccc(C(=O)NO)cc2)c2c[nH]cn2)c1C` (stereo not drawn) [compound 219]: the 50% effective concentration (EC50) in series [2] was under 10 nM. For the same molecule, the Ki in series [3] is under 10 nM. For the same molecule, the efflux ratio at 2.5 h, 2 μM in series [4] was 26.9.

As for `CCc1cscc1C(c1cccc(NS(C)(=O)=O)c1)c1c[nH]cn1` (stereo not drawn) [compound 401], the EC50 in series [2] lay in the range of 10 to 50 nM. In addition, the Ki in series [3] was under 10 nM. The efflux ratio at 2.5 h, 2 μM in series [4] worked out at 22.
